This note sets out measurements from PubChem BioAssay AID1259407 (Chemical Carcinogenesis Research Information System (CCRIS), 2018).

The subject of the data set is CCRIS mutagenicity, Ames/micronucleus/aberration tests. Description: CCRIS mutagenicity studies.
Setting [1] is: Test System: AMES SALMONELLA TYPHIMURIUM, Strain/Indicator: TA97, Metabolic Activation: HAMSTER, LIVER, S-9, AROCLOR 1254 (30%), Method: PREINCUBATION
[2] abbreviates: Test System: AMES SALMONELLA TYPHIMURIUM, Strain/Indicator: TA97, Metabolic Activation: NONE, Method: PREINCUBATION
Where [3] appears, read: Test System: AMES SALMONELLA TYPHIMURIUM, Strain/Indicator: TA98, Metabolic Activation: NONE, Method: PREINCUBATION
The mark [4] stands for this setting: Test System: AMES SALMONELLA TYPHIMURIUM, Strain/Indicator: TA100, Metabolic Activation: NONE, Method: PREINCUBATION
Where [5] appears, read: Test System: AMES SALMONELLA TYPHIMURIUM, Strain/Indicator: TA1535, Metabolic Activation: NONE, Method: PREINCUBATION
[6] abbreviates: Test System: AMES SALMONELLA TYPHIMURIUM, Strain/Indicator: TA1537, Metabolic Activation: NONE, Method: PREINCUBATION

Active and inactive are the calls of the source. The rule behind the calls is not given here.

For `CCCCOCCOCCSC#N`, the mutagenic call by setting is: (Test System: AMES SALMONELLA TYPHIMURIUM, Strain/Indicator: TA97, Metabolic Activation: HAMSTER, LIVER, S-9, AROCLOR 1254 (10%), Method: PREINCUBATION) “inactive; negative”; under setting [1], “inactive; negative”; under setting [2], “inactive; negative”; (Test System: AMES SALMONELLA TYPHIMURIUM, Strain/Indicator: TA97, Metabolic Activation: RAT, LIVER, S-9, AROCLOR 1254 (10%), Method: PREINCUBATION) “inactive; negative”; (Test System: AMES SALMONELLA TYPHIMURIUM, Strain/Indicator: TA97, Metabolic Activation: RAT, LIVER, S-9, AROCLOR 1254 (30%), Method: PREINCUBATION) “inactive; negative”; (Test System: AMES SALMONELLA TYPHIMURIUM, Strain/Indicator: TA98, Metabolic Activation: HAMSTER, LIVER, S-9, AROCLOR 1254 (10%), Method: PREINCUBATION) “inactive; negative”. The mutagenic call (Test System: AMES SALMONELLA TYPHIMURIUM, Strain/Indicator: TA98, Metabolic Activation: HAMSTER, LIVER, S-9, AROCLOR 1254 (30%), Method: PREINCUBATION) was “inactive; negative”; the mutagenic call under setting [3] is “inactive; negative”; the mutagenic call (Test System: AMES SALMONELLA TYPHIMURIUM, Strain/Indicator: TA98, Metabolic Activation: RAT, LIVER, S-9, AROCLOR 1254 (10%), Method: PREINCUBATION) was “inactive; negative”; the mutagenic call (Test System: AMES SALMONELLA TYPHIMURIUM, Strain/Indicator: TA98, Metabolic Activation: RAT, LIVER, S-9, AROCLOR 1254 (30%), Method: PREINCUBATION) is “inactive; negative”; the mutagenic call (Test System: AMES SALMONELLA TYPHIMURIUM, Strain/Indicator: TA100, Metabolic Activation: HAMSTER, LIVER, S-9, AROCLOR 1254 (10%), Method: PREINCUBATION) is “inactive; negative”; the mutagenic call (Test System: AMES SALMONELLA TYPHIMURIUM, Strain/Indicator: TA100, Metabolic Activation: HAMSTER, LIVER, S-9, AROCLOR 1254 (30%), Method: PREINCUBATION) was “inactive; negative”. In addition, the mutagenic call by setting is: under setting [4], “inactive; negative”; (Test System: AMES SALMONELLA TYPHIMURIUM, Strain/Indicator: TA100, Metabolic Activation: RAT, LIVER, S-9, AROCLOR 1254 (10%), Method: PREINCUBATION) “inactive; negative”; (Test System: AMES SALMONELLA TYPHIMURIUM, Strain/Indicator: TA100, Metabolic Activation: RAT, LIVER, S-9, AROCLOR 1254 (30%), Method: PREINCUBATION) “inactive; negative”; (Test System: AMES SALMONELLA TYPHIMURIUM, Strain/Indicator: TA1535, Metabolic Activation: HAMSTER, LIVER, S-9, AROCLOR 1254 (10%), Method: PREINCUBATION) “inactive; negative”; (Test System: AMES SALMONELLA TYPHIMURIUM, Strain/Indicator: TA1535, Metabolic Activation: HAMSTER, LIVER, S-9, AROCLOR 1254 (30%), Method: PREINCUBATION) “inactive; negative”; under setting [5], “inactive; negative”. Also, the mutagenic call (Test System: AMES SALMONELLA TYPHIMURIUM, Strain/Indicator: TA1535, Metabolic Activation: RAT, LIVER, S-9, AROCLOR 1254 (10%), Method: PREINCUBATION) is “inactive; negative”; the mutagenic call (Test System: AMES SALMONELLA TYPHIMURIUM, Strain/Indicator: TA1535, Metabolic Activation: RAT, LIVER, S-9, AROCLOR 1254 (30%), Method: PREINCUBATION) was “inactive; negative”; the mutagenic call (Test System: AMES SALMONELLA TYPHIMURIUM, Strain/Indicator: TA1537, Metabolic Activation: HAMSTER, LIVER, S-9, AROCLOR 1254 (30%), Method: PREINCUBATION) is “inactive; negative”; the mutagenic call under setting [6] was “inactive; negative”; the mutagenic call (Test System: AMES SALMONELLA TYPHIMURIUM, Strain/Indicator: TA1537, Metabolic Activation: RAT, LIVER, S-9, AROCLOR 1254 (30%), Method: PREINCUBATION) was “inactive; negative”.
Take `CCCCCCCCCCC1CO1` (stereo not drawn): the mutagenic call runs as follows: under setting [1], “inactive; negative”; under setting [2], “inactive; negative”; (Test System: AMES SALMONELLA TYPHIMURIUM, Strain/Indicator: TA97, Metabolic Activation: RAT, LIVER, S-9, AROCLOR 1254 (10% & 30%), Method: PREINCUBATION) “inactive; negative”; (Test System: AMES SALMONELLA TYPHIMURIUM, Strain/Indicator: TA98, Metabolic Activation: HAMSTER, LIVER, S-9, AROCLOR 1254 (10% & 30%), Method: PREINCUBATION) “inactive; negative”; under setting [3], “inactive; negative”; (Test System: AMES SALMONELLA TYPHIMURIUM, Strain/Indicator: TA98, Metabolic Activation: RAT, LIVER, S-9, AROCLOR 1254 (10% & 30%), Method: PREINCUBATION) “inactive; negative”. For the same compound, the mutagenic call is “inactive; negative” (Test System: AMES SALMONELLA TYPHIMURIUM, Strain/Indicator: TA100, Metabolic Activation: HAMSTER, LIVER, S-9, AROCLOR 1254 (10% & 30%), Method: PREINCUBATION); “inactive; negative” under setting [4]; “inactive; negative” (Test System: AMES SALMONELLA TYPHIMURIUM, Strain/Indicator: TA100, Metabolic Activation: RAT, LIVER, S-9, AROCLOR 1254 (10% & 30%), Method: PREINCUBATION); “inactive; negative” (Test System: AMES SALMONELLA TYPHIMURIUM, Strain/Indicator: TA1535, Metabolic Activation: HAMSTER, LIVER, S-9, AROCLOR 1254 (10% & 30%), Method: PREINCUBATION); “inactive; negative” under setting [5]; “inactive; negative” (Test System: AMES SALMONELLA TYPHIMURIUM, Strain/Indicator: TA1535, Metabolic Activation: RAT, LIVER, S-9, AROCLOR 1254 (10% & 30%), Method: PREINCUBATION). The mutagenic call (Test System: AMES SALMONELLA TYPHIMURIUM, Strain/Indicator: TA1537, Metabolic Activation: HAMSTER, LIVER, S-9, AROCLOR 1254 (10% & 30%), Method: PREINCUBATION) was “inactive; negative”; the mutagenic call under setting [6] was “inactive; negative”; the mutagenic call (Test System: AMES SALMONELLA TYPHIMURIUM, Strain/Indicator: TA1537, Metabolic Activation: RAT, LIVER, S-9, AROCLOR 1254 (10% & 30%), Method: PREINCUBATION) was “inactive; negative”; the mutagenic call (Test System: UDS MOUSE EPIDERMIS IN VIVO/IN VITRO, Strain/Indicator: HOS:HR-1/THYMIDINE INCORPORATION, Metabolic Activation: NONE, Method: LIQUID SCINTILLATION) is “inactive; negative”.
In the case of `CCOc1cccc2cccnc12`, the mutagenic call (Test System: AMES SALMONELLA TYPHIMURIUM, Strain/Indicator: TA100, Metabolic Activation: S-9, Method: PREINCUBATION) was “inactive; negative”.
On to `ClCc1ccc2c3c(cccc13)-c1ccccc1-2`, for which the mutagenic call is “active; positive” (Test System: AMES SALMONELLA TYPHIMURIUM, Strain/Indicator: TA98, Metabolic Activation: NONE, Method: STANDARD PLATE) and “active; positive” (Test System: AMES SALMONELLA TYPHIMURIUM, Strain/Indicator: TA100, Metabolic Activation: NONE, Method: STANDARD PLATE).
Regarding `COC(=O)[C@H](C)CN=[N+]=[N-]`, the mutagenic call (Test System: AMES SALMONELLA TYPHIMURIUM, Strain/Indicator: TA100, Metabolic Activation: RAT, LIVER, S-9, PCB, Method: PREINCUBATION) is “active; positive”.
